According to US20080287490A1, “Bis-pyridino containing compounds for the use in the treatment of CNS pathologies” (UNIVERSITY OF KENTUCKY RESEARCH FOUNDATION, priority 2005, published 2008):
Where two headings read alike, the source gives them in different places.

Legend:
[1] = test system: nAChR subtypes mediating nicotine-evoked [^3H]-dopamine overflow
Procedure: [^3H]-Dopamine overflow from superfused striatal slices. […] Striatal coronal slices (500 μm, 4-6 mg) were obtained and incubated for 30 minutes in Krebs' buffer (in mM: 118 NaCl, 4.7 KCl, 1.2 MgCl2, 1 NaH2PO4, 1.3 CaCl2, 11.1 glucose, 25 NaHCO3, 0.11 L-ascorbic acid and 0.004 disodium EDTA, pH 7.4, saturated with 95% O2/5% CO2) in a metabolic shaker at 34° C. Slices were incubated with 0.1 μM (final concentration) of [^3H]-dopamine during the latter 30 minutes of the 60-minute incubation period. Each slice was transferred to a glass superfusion chamber maintained at 34° C. and superfused (1 ml/min) with Krebs' buffer containing nomifensine (10 μM) and pargyline (10 μM) to inhibit [^3H]-dopamine reuptake after release into the extracellular space, ensuring that [^3H]-overflow primarily represented [^3H]-dopamine. Sample collection (5-minute; 5 mL) began after 60 minutes of superfusion. […] At the end of the experiment, each slice was solubilized, and the [^3H]-content of the tissue determined. Release during each minute was normalized for total tissue [^3H]-content. Analog-induced intrinsic activity and inhibitory activity were determined using slices from the same rat (repeated-measures design).
The amount of [^3H] in each sample was calculated by dividing the total [^3H] collected in each sample by the total in the tissue at the time of sample collection (defined as fractional release). […] Data were analyzed by weighted, least squares regression analysis of the sigmoidal concentration-effect curves to obtain EC50 and IC50 values.
Striatal slices (500 μm, 4-6 mg) were incubated for 30 minutes in Krebs' buffer (in mM: 118 NaCl, 4.7 KCl, 1.2 MgCl2, 1 NaH2PO4, 1.3 CaCl2, 11.1 glucose, 25 NaHCO3, 0.11 L-ascorbic acid and 0.004 disodium EDTA, pH 7.4, saturated with 95% O2/5% CO2) in a metabolic shaker at 34° C. Slices were incubated with 0.1 μM (final concentration) [^3H]DA during the latter 30 minutes of the 60-minute incubation period. Each slice was transferred to a glass superfusion chamber maintained at 34° C. and superfused (1 ml/min) with Krebs' buffer containing nomifensine (10 μM) and pargyline (10 μM) to inhibit [^3H]DA reuptake and metabolism, respectively, after release into the extracellular space, ensuring that [^3H]overflow primarily represents [^3H]DA. Sample collection (5-minute; 5 ml) began after 60 minutes of superfusion. […] Thus, the ability of these analogs to elicit intrinsic activity (evoke [^3H]DA overflow) was determined. At the end of the experiment, each slice was solubilized and [^3H]content of the tissue determined. Release during each minute was normalized for total [^3H]content of the slice. Analog-induced intrinsic activity and inhibitory activity were determined using slices from the same rat (repeated-measures design).
Fractional release was calculated by dividing the total tritium collected in each sample by the total tritium in the tissue at the time of sample collection. […] Typically, data were analyzed by weighted, least squares regression analysis of sigmoidal concentration-effect curves to obtain EC50 and IC50 values.

[2] = test system: nAChR subtypes mediating nicotine-evoked DA release; assay: Analog-evoked [^3H]DA overflow (intrinsic activity) from superfused striatal slices; format: cell-based, rat
[3] = biological target: T1, Rat Striatal Nicotinic Acetylcholine Receptors ([^3H]nicotine binding sites) (Rattus norvegicus, UniProt P09483+P12390); assay: biochemical; conditions: rat striatal membranes, 3 nM [^3H]-nicotine; read-out: Ki, specific binding of [^3H]-nicotine
T1 construct: Striata from two rats were dissected, pooled, and homogenized; from tissue; host or cells: rat striatum membranes
T1 sequence (P09483 31-630): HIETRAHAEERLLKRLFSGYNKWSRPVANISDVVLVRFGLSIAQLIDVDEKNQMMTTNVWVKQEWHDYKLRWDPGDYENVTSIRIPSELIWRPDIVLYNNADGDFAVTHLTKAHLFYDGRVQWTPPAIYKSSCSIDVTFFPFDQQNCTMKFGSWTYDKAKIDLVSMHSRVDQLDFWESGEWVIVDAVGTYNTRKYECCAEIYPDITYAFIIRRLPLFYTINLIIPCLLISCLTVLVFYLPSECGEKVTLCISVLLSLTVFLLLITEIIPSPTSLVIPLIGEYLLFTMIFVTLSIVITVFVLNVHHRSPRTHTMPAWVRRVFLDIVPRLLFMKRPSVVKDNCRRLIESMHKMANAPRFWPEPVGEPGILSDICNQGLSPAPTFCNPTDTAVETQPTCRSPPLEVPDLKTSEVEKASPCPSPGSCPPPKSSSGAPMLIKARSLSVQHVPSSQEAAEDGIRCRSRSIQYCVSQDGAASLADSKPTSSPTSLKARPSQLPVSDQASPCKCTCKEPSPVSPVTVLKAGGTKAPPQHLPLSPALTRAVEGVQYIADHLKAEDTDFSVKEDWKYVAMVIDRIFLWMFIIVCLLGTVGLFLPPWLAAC
T1 sequence (P12390 25-500): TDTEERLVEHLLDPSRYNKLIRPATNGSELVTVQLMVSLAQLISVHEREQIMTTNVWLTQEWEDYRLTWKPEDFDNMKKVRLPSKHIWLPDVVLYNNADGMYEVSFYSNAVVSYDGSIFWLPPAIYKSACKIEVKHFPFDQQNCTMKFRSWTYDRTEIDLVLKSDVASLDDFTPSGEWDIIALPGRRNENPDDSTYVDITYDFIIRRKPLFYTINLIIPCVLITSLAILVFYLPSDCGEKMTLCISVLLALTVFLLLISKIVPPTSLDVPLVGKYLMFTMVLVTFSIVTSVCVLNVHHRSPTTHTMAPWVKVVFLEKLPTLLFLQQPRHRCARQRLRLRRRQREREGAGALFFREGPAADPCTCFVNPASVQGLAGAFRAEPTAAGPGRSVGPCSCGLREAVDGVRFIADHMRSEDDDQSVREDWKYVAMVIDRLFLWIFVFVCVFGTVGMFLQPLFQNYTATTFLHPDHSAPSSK
Procedure: Striata from two rats were dissected, pooled, and homogenized with a Tekmar polytron in 10 volumes of ice-cold modified Krebs-HEPES buffer (20 mM HEPES, 118 mM NaCl, 4.8 mM KCl, 2.5 mM CaCl2, 1.2 mM MgSO4, adjusted to pH 7.5). The homogenates were incubated at 37° C. for five minutes and centrifuged at 15,000 g for 20 minutes. The pellet was resuspended in ten volumes of ice-cold MilliQ water, incubated for five minutes at 37° C., and centrifuged at 15,000 g for 20 minutes The second pellet was then resuspended in ten volumes of fresh ice-cold 10% Krebs-HEPES buffer, incubated at 37° C., and centrifuged at 15,000 g for 20 minutes. The latter sequence of resuspension, incubation, and centrifugation was repeated. The pellet was frozen under fresh 10% Krebs-HEPES buffer and stored at −40° C. until assay. Upon assay, the pellet was resuspended in the Krebs-HEPES buffer, incubated at 37° C. for five minutes, and centrifuged at 15,000 g for 20 minutes. The final pellet was resuspended in 3.6 ml ice-cold MilliQ water which provided for approximately 200 μg protein per 100 μl aliquot. Competition assays were performed in duplicate in a final volume of 200 μl Krebs-HEPES buffer containing […] Tris buffer (pH 7.5 at 4° C.). […] After a 90 minute incubation at 4° C., reactions were terminated by dilution of the samples with 3 ml of ice-cold Krebs-HEPES buffer followed immediately by filtration through Whatman GF/B glass fiber filters (presoaked in 0.5% polyethyleneimine) using a Brandel Cell Harvester. Filters were rinsed three times with 3 ml of ice-cold Krebs-HEPES buffer, transferred to scintillation vials, and 5 ml scintillation cocktail (Research Products International Corp., Mt. Prospect, Ill.) added. […] Binding parameters were determined using the weighted, least squares non-linear regression.

[4] = biological target: T2, α7-type neuronal nicotinic acetylcholine receptors (Rattus norvegicus, UniProt Q05941); assay: biochemical; conditions: rat brain membranes, 2.5 nM [^3H]-MLA; read-out: Ki, [^3H]MLA binding
T2 construct: Rat brain was dissected into the whole brain tissue without cortex, striatum and cerebellum; from tissue; host or cells: rat brain (without cortex, striatum, cerebellum) membranes
T2 sequence (Q05941 23-502): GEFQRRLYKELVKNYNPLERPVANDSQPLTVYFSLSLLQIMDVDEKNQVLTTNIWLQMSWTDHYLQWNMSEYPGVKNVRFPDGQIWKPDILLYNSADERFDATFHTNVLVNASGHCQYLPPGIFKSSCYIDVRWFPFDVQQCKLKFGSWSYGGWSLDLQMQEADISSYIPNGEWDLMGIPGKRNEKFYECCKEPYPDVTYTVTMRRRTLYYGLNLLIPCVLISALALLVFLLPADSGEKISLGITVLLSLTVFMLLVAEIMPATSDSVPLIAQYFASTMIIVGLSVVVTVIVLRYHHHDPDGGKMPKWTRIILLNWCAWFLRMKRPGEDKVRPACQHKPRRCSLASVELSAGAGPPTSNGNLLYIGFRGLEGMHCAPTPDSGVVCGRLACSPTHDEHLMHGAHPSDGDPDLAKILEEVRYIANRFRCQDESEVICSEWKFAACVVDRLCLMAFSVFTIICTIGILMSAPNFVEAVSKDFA

[5] = biological target: blood-brain barrier choline transporter; format: in vivo, rat; conditions: read-out: apparent Ki, inhibition of [^3H]-choline uptake into brain
Procedure: Blood-brain barrier choline transporter affinity assays. Quaternary ammonium analogs were evaluated for their ability to inhibit [^3H]-choline uptake into brain providing an indication of the ability of these analogs to interact with the choline transporter. These assays were conducted using the in situ rat brain perfusion method of Takasato, et al., Am. J. Physiol. 1984, 247, 484, as modified by Allen and Smith, J. Neurochem., 2001, 76, 1032. […] Ki values were compared by ANOVA followed by Bonferoni's multiple comparisons test to determine if an analog inhibits [^3H]-choline uptake.
Analog affinity for, and transport by, the blood-brain barrier choline transporter.

[6] = test system: nAChR mediating nicotine-evoked [^3H]DA release (α3β2* receptor subtype); format: cell-based, rat; conditions: rat striatal slices, nicotine 10 μM; read-out: IC50, S-(−)-nicotine-evoked [^3H]DA release
Procedure: Slices were rinsed with 15 mL of fresh buffer and incubated for an additional 30 minutes in fresh buffer containing 0.1 μM [^3H]DA (6 slices/3 ml). Subsequently, slices were rinsed with 15 ml of fresh buffer and transferred to a glass superfusion chamber.
Radioactivity in the superfusate and tissue samples was determined by liquid scintillation spectroscopy. […] Basal [^3H]outflow was calculated from the average of the tritium collected in the two five minute samples just before addition of the bis-alkyl pyridino analog. […] [^3H]Overflow was calculated by subtracting the [^3H]outflow during an equivalent period of prestimulation from the values in samples collected during and after drug exposure. Inasmuch as the radiolabelled compounds were not separated and identified, the tritium collected in superfusate is referred to as either [^3H]outflow or [^3H]overflow, rather than as [^3H]DA.

[7] = biological target: α4β2* nAChRs (Rattus norvegicus, UniProt P09483+P12390)
α4β2* nAChRs, sequence (P09483 31-630): as the sequence (P09483 31-630) above
α4β2* nAChRs, sequence (P12390 25-500): as the sequence (P12390 25-500) above
Procedure: (§1) Whole brain, excluding cortex and cerebellum, was homogenized in 20 ml of ice-cold buffer, containing (in mM): 2 HEPES, 11.8 NaCl, 0.48 KCl, 0.25 CaCl2 and 0.12 MgSO4, pH 7.5. Homogenate was centrifuged (25,000 g, 15 minutes, 4° C.). Pellets were resuspended in 20 ml of buffer and incubated at 37° C., for ten minutes, cooled to 4° C. and centrifuged (25,000 g, 15 minutes, 4° C.). Pellets were resuspended and centrifuged using the same conditions. Final pellets were stored in assay buffer, containing (in mM): 20 HEPES, 118 NaCl, 4.8 KCl, 2.5 CaCl2, and 1.2 MgSO4) pH 7.5 at −70° C. Upon use, final pellets were resuspended in ˜20 ml assay buffer. […] Control was in the absence of analog. […] Incubations proceeded for 60 minutes at room temperature using 96-well plates and were terminated by harvesting on Unifilter-96 GF/B filter plates presoaked in 0.5% polyethylenimine, using a Packard FilterMate harvester.
(§2) After washing five times with 350 μl ice-cold assay buffer, filter plates were dried (60 minutes, 49° C.), bottom-sealed, and filled with Packard's MicroScint 20 cocktail (40 μl/well). After 60 minutes, filter plates were top-sealed, and radioactivity determined using a Packard TopCount. Protein concentrations were determined using bovine serum albumin as the standard.
(§3) Whole brain was homogenized in 20 ml of ice-cold buffer (in mM: 2 HEPES, 11.8 NaCl, 0.48 KCl, 0.25 CaCl2, and 0.12 MgSO4, pH 7.5). Homogenates were centrifuged (25,000 g, 15 minutes, 4° C.). Pellets were resuspended in 20 ml of buffer and incubated at 37° C., for 10 minutes, cooled to 4° C. and centrifuged (25,000 g, 15 minutes, 4° C.). Pellets were resuspended and centrifuged again using the same conditions. Final pellets were stored at −70° C. in assay buffer (in mM: 20 HEPES, 118 NaCl, 4.8 KCl, 2.5 CaCl2, and 1.2 MgSO4, pH 7.5). Upon use, final pellets were resuspended in ˜20 ml assay buffer. […] Control was in the absence of analog. […] Incubation proceeded for 60 minutes at room temperature using 96-well plates and was terminated by harvesting on Unifilter-96 GF/B filter plates, presoaked in 0.5% polyethylenimine, using a Packard FiterMate harvester. After washing 5× with 350 μl ice-cold assay buffer, filter plates were dried (60 minutes, 49° C.), bottom-sealed, and filled with Packard's MicroScint 20 cocktail (40 μl/well). After 60 minutes, filter plates were top-sealed, and radioactivity determined. Protein concentration was determined using BSA as the standard.

[8] = biological target: T3, α7* nAChRs (Rattus norvegicus, UniProt Q05941); assay: biochemical
T3 sequence (Q05941 23-502): as the sequence (Q05941 23-502) above
Procedure: as §1, §2, §3

[9] = biological target: [^3H]DA Uptake; assay: [^3H]DA uptake inhibition (Table 11); format: biochemical
[10] = biological target: T2, α7-type neuronal nicotinic acetylcholine receptors; format: binding
Procedure: Rat brain was dissected into the whole brain tissue without cortex, striatum and cerebellum and was frozen in liquid nitrogen and stored at −70° C. until use.
The brain tissue was homogenized with a Tekmar Polytron (setting 40) in 20 volumes of ice-cold hypotonic buffer (2 mM HEPES, 14.4 mM NaCl, 0.15 mM KCl, 0.2 mM CaCl2 and 0.1 mM MgSO4, pH=7.5). The homogenate was incubated at 37° C. for ten minutes and centrifuged at 25,000×g for 15 minutes at […] The pellet was washed three times more by resuspension in the 20 volumes of the same buffer and centrifugation at the above parameters. The final pellet was stored at −20° C. under 4.6 ml of the incubation buffer and was suspended just before the incubation with radioligand.
[^3H]MLA (25.4 Ci/mmol) was purchased from Tocris Cookson Ltd., Bristol, U.K. Binding was performed in duplicate, in a final volume of 250 μl of the incubation medium, containing 20 mM HEPES, 144 mM NaCl, 1.5 mM KCl, 2 mM CaCl2, 1 mM MgSO4 and 0.05% BSA, pH=7.5. Reaction was initiated by the addition of 100 μl of membrane suspension to the samples containing a desired concentration of test compounds and […] [^3H] MLA (final concentration) and incubated for 2 hours at room temperature. […] The binding reaction was terminated by dilution of samples with 3 ml of ice-cold incubation buffer followed by immediate filtration through presoaked in 0.5% polyethylenimine glass fiber filters (S&S, grade #32) using a Brandel harvester system. Filters were rinsed three times with 3 ml of ice-cold buffer, transferred to scintillation-vials and 4 ml of scintillation cocktail was added. Protein was measured using the Bradford dye-binding procedure with bovine serum albumin as the standard.

[11] = biological target: T3, α7* nAChRs; conditions: read-out: [^3H]MLA Binding Ki
Procedure: as §1, §2, §3

[12] = read-out: IC50, inhibition of nicotine-evoked [^3H]dopamine release/overflow
[13] = read-out: Nicotine-evoked [^3H]DA Overflow IC50, Table 11
[14] = read-out: [^3H]Nicotine Binding Ki, Table 11

Compound	maximal inhibition (Imax) of nicotine-evoked [^3H]DA overflow [1] [%]	IC50 [1, 12] [µM]	Ki [3] [µM]	Ki [4] [µM]	IC50 [6] [µM]	IC50 [1, 13] [µM]	Ki [9] [µM]	Ki ([11]; Table 11) [µM]	Ki [7, 14] [µM]	other results
CCCCCCCCCCCC[n+]1cccc(C)c1.[I-] [NDDPiI]	63	0.03								concentration evoking [^3H]DA overflow (intrinsic activity) [2]: ≥ 1.0 µM
CCCCCCCCCC[n+]1cccc(C2CCCN2C)c1 (stereo not drawn) [NDNI]			0.11	> 100	> 100					inhibitory activity at the nAChR subtype mediating nicotine-evoked dopamine release [1]: does not exhibit inhibitory activity; Ki [5]: 27 µM; Ki ([7]; [^3H]Nicotine Binding Ki, Table 4, mean (95% confidence interval)): 0.09 µM; Ki ([7]; affinity for [^3H]-nicotine binding sites): ~0.09 µM; mode of interaction with the high affinity [^3H]-nicotine binding site (Scatchard analyses) ([7]; no change in Bmax): competitive manner; Ki [8]: > 100 µM
N,N′-Dodecane-1,12-diyl-bis-picolinium Dibromide [bPiDDB]	60	0.005	33		0.005	0.005 ± 0.003	> 100	> 100	48.6 ± 17.2	affinity for nAChR subtype mediating nicotine-evoked [^3H]DA overflow compared to α4β2* and α7* nAChRs [1]: 4-5 orders of magnitude; potency relative to DHβE in inhibiting nicotine-evoked [^3H]DA overflow [1]: approximately 320 fold; IC50 ([1]; read-out: Nicotine-evoked [^3H]DA Overflow IC50, Table 10, mean (standard error)): 0.005 µM; Ki ([10]; rat brain membranes, […] [^3H]-MLA, read-out: Ki, [^3H]MLA binding): > 100 µM; Ki ([7]; read-out: [^3H]Nicotine Binding Ki, Table 10, mean (standard error)): 49 µM
[Br-].[Br-].c1cc[n+](CCCCCCCCCCCC[n+]2ccccc2)cc1 [bPDDB, N,N′-Dodecane-1,12-diyl-bis-pyridinium Dibromide]			9.14	35.6	1	1 ± 0.38	> 100	33 ± 4.6	9.15 ± 0.17	IC50 ([1]; read-out: Nicotine-evoked [^3H]DA Overflow IC50, Table 7, mean (standard error)): 1 µM; binding affinity in the [^3H]MLA assay [10]: moderate binding affinity; Ki ([11]; Table 7, mean (standard error)): 33 µM; Ki ([7]; read-out: [^3H]Nicotine Binding Ki, Table 7, mean (standard error)): 9.15 µM
